Assay results taken from BindingDB's records for patent US20240246937 (Merck Sharp & Dohme, 2024).
pEC50: −log10 of the molar value.

Target: T1, L-amino-acid oxidase (Homo sapiens, UniProt Q96RQ9)
T1 sequence (Q96RQ9 whole entry): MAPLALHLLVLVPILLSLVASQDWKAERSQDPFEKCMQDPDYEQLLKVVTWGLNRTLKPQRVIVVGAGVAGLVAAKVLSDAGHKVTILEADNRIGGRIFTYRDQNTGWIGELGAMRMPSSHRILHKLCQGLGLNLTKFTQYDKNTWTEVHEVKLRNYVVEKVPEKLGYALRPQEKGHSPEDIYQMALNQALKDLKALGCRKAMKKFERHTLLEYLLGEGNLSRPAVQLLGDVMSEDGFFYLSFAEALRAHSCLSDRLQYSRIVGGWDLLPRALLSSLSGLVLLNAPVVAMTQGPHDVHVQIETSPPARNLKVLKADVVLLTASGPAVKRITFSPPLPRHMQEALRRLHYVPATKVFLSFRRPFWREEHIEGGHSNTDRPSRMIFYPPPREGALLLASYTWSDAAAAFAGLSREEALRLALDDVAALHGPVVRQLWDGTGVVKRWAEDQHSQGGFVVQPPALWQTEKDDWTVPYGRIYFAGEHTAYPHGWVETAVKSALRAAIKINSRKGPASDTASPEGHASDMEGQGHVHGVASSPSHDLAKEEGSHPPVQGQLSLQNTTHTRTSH
Assay: IL4I1 Enzymatic Assay
Experimental: Using this assay, the potency (EC50) of each compound was determined from a ten-point (1:3 serial dilution) titration curve using the following outlined procedure. To each well of a black flat-bottom Greiner (Cat #781076) 384 well-plate, 25 nL of compound (0.1% DMSO in final assay volume of 25 μL) was dispensed, followed by the addition of 12.5 μL of 1× assay buffer (50 mM Hepes 7.0 and 0.005% Tween20 (Sigma, Cat #P8341; low peroxide grade)) containing 2 nM of recombinant IL4I1 (R&D Systems, Cat #5684-AO-020). Plates were placed in an ambient temperature humidified chamber for a four-hour pre-incubation with compound. Subsequently, each reaction was initiated by the addition of 12.5 μL 1× assay buffer containing 2 mM of each aromatic amino acids (Phe/Tyr/Trp), 0.1 mM Amplex Red and 2 U/mL of HRP. The final reaction in each well of 25 μL consisted of 1 nM of IL4I1, 1 mM of each residues (Phe, Tyr and Trp), 0.05 mM Amplex Red and 1 U/mL of HRP. It should be noted that the concentrations of Amplex Red and HRP used here were in excess such that the conversion of H2O2 to resorufin product occurred

pEC50: 8.22
SMILES: CC1CC(N2CCN(Cc3nnc(-c4ccccc4)s3)C(=O)C2=O)C1 (stereo unspecified) [US20240246937, Example 289]
